Laboratory results from patent publication US20250011288A1 (BRISTOL-MYERS SQUIBB COMPANY, priority 2021, published 2025).
pEC50: −log10 of the molar value.

target: T1, human RXFP1 (Homo sapiens, UniProt Q9HBX9); test: human RXFP1 (hRXFP1) HEK293 cAMP assay (HTRF); assay type: cell-based; settings: HEK293 cells stably expressing human RXFP1, 30 min at room temperature
T1 construct: expressed in transfected cells
T1 sequence (Q9HBX9 1-757): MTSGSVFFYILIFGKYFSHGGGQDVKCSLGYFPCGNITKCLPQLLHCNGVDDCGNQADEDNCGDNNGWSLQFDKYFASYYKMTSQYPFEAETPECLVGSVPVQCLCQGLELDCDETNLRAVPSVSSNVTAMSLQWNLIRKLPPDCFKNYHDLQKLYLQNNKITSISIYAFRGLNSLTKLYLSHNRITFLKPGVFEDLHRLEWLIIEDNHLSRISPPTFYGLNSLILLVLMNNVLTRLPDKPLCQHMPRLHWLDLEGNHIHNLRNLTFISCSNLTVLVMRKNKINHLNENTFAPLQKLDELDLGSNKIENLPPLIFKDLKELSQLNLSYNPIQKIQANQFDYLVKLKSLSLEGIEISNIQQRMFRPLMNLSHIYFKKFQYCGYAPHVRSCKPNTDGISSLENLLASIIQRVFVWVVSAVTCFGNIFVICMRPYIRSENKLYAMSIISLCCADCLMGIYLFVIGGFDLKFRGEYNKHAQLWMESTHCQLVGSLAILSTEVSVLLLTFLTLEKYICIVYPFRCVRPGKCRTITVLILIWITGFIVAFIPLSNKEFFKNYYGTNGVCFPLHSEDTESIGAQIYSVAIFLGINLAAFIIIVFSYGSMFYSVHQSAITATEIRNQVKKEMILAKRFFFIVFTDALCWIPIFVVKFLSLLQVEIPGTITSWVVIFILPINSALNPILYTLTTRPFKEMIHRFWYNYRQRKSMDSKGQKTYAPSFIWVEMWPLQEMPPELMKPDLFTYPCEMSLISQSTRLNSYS
In short: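 HEK293 cells stably expressing human RXFP1 (1500 cells/well) in HBSS/20 mM HEPES/0.05% BSA/0.5 mM IBMX, treated with compound (0.010 nM–50 µM final, 2% DMSO) for 30 min at room temperature. Intracellular cAMP read by HTRF; potency from 4-parameter logistic fit of cAMP versus concentration.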

pEC50 | Structure (SMILES)
8.80 | COc1ncc(C2=NOC3CN(CCS(C)(=O)=O)CC23)cc1C(=O)N[C@H]1[C@@H](C(=O)Nc2ccc(F)c(C(F)(F)F)c2)[C@H]2CC[C@@H]1/C2=C\C1CC1 (stereo partly drawn) [Example 178, N-[(1R,2R,3S,4R, 7Z)-7-(cyclopropyl-methylidene)-3-{[4-fluoro-3-(trifluoromethyl)phenyl]carbamoyl}bicyclo[2.2.1]heptan-2-yl]-5-[5-(2-methanesulfonylethyl)-3aH,4H,5H,6H, 6aH-pyrrolo[3,4-d][1,2]oxazol-3-yl]-2-methoxypyridine-3-carboxamide]
5.92 | COc1cc2c(cc1C(=O)N[C@@H]1C3CCC(/C3=C/C3CC3)[C@@H]1C(=O)Nc1ccc(F)c(C(F)(F)F)c1)CN(CCO)CC2 (stereo partly shown) [Example 94]
8.77 | COc1ncc(-c2cc([C@H](OC(=O)NC3CC3)C(F)(F)F)ccc2F)cc1C(=O)N[C@H]1[C@@H](C(=O)Nc2ccc(F)c(C(F)(F)F)c2)[C@H]2CC[C@@H]1/C2=C\C1CC(F)(F)C1 [Example 167, (1S)-1-[3-(5-{[(1R,2R,3S,4R, 7Z)-7-[(3,3-difluorocyclobutyl)methylidene]-3-{[4-fluoro-3-(trifluoromethyl)phenyl]carbamoyl}bicyclo[2.2.1]heptan-2-yl]carbamoyl}-6-methoxypyridin-3-yl)-4-fluorophenyl]-2,2,2-trifluoroethyl N-cyclopropyl-carbamate]
8.05 | COc1ncc(C2=NOC3CC(C(OC(=O)NC4CCC4)C4CC4)CC23)cc1C(=O)N[C@@H]1C2CCC(/C2=C/C2CC(F)(F)C2)[C@@H]1C(=O)Nc1ccc(F)c(C(F)(F)F)c1 (stereo partly drawn) [Example 161, cyclopropyl[3-(5-{[(2R,3S,7Z)-7-[(3,3-difluorocyclobutyl)methylidene]-3-{[4-fluoro-3-(trifluoromethyl)phenyl]carbamoyl}bicyclo[2.2.1]heptan-2-yl]carbamoyl}-6-methoxypyridin-3-yl)-3aH,4H,5H,6H, 6aH-cyclopenta[d][1,2]oxazol-5-yl]methyl N-cyclobutylcar-bamate]
8.80 | COc1ncc(C2=NOC3CC(C(O)C(F)(F)F)CC23)cc1C(=O)N[C@H]1[C@@H](C(=O)Nc2ccc(F)c(C(F)(F)F)c2)[C@H]2CC[C@@H]1/C2=C\C1CC1 (stereo partly drawn) [Example 131, N-((1R,2R,3S,4R,Z)-7-(cyclopropyl-methylene)-3-((4-fluoro-3-(trifluoromethyl)phenyl)carbamoyl)bicyclo[2.2.1]heptan-2-yl)-2-methoxy-5-(5-(2,2,2-trifluoro-1-hydroxyethyl)-3a,5,6,6a-tetrahydro-4H-cyclopenta[d]isoxazol-3-yl)nicotinamide]
8.17 | CC1Cc2cc(C3=NOC4CC(O)CC34)cc(C(=O)N[C@@H]3C4CCC(/C4=C/C4CC4)[C@@H]3C(=O)Nc3ccc(F)c(C(F)(F)F)c3)c2O1 (stereo partly drawn) [Example 155, N-[(1R,2R,3S,4R, 7Z)-7-(cyclopropyl-methylidene)-3-{[4-fluoro-3-(trifluoromethyl)phenyl]carbamoyl}bicyclo[2.2.1]heptan-2-yl]-5-{5-hydroxy-3aH,4H,5H,6H, 6H-cyclopenta[d][1,2]oxazol-3-yl}-2-methyl-2,3-dihydro-1-benzofuran-7-carboxamide]
8.52 | COc1ncc(C2=NOC3COCC23)cc1C(=O)N[C@H]1[C@@H](C(=O)N[C@H](C)C2(C)CC2)[C@H]2CC[C@@H]1/C2=C\C1CC1 (stereo partly drawn) [Example 137, N-((1R,2R,3S,4R,Z)-7-(cyclopropyl-methylene)-3-(((R)-1-(1-methylcyclopropyl)ethyl)carbamoyl)bicyclo[2.2.1]heptan-2-yl)-2-methoxy-5-(3a,4,6,6a-tetrahydrofuro[3,4-d]isoxazol-3-yl)nicotinamide]
8.46 | COc1ncc(C(=O)NCC2(S(C)(=O)=O)CC2)cc1C(=O)N[C@H]1C(C(=O)Nc2ccc(F)c(C(F)(F)F)c2)[C@H]2CC[C@@H]1/C2=C\C1CC1 (stereo in doubt) [Example 74, N3-((1R,2R,3R,4R,Z)-7-(cyclopropylmethylene)-3-((4-fluoro-3-(trifluoromethyl)phenyl)carbamoyl)bicyclo[2.2.1]heptan-2-yl)-2-methoxy-N5-((1-(methylsulfonyl)cyclopropyl)methyl)pyridine-3,5-dicarboxamide]
8.57 | COc1ncc(C(=O)NCC2(S(C)(=O)=O)CC2)cc1C(=O)N[C@H]1[C@@H](C(=O)N[C@H](C)C2(C)CC2)[C@H]2CC[C@@H]1/C2=C\C1CC1 [Example 149, N3-[(1R,2R,3S,4R, 7Z)-7-(cyclopropyl-methylidene)-3-{[(1R)-1-(1-methylcyclopropyl)ethyl]carbamoyl}bicyclo[2.2.1]heptan-2-yl]-N5-[(1-methanesulfonylcyclopropyl)methyl]-2-methoxypyridine-3,5-dicarboxamide]
8.51 | COc1ncc(C2=NOC3CC(CO)CC23)cc1C(=O)N[C@H]1[C@@H](C(=O)Nc2ccc(F)c(C(F)(F)F)c2)[C@H]2CC[C@@H]1/C2=C\C1CCCC1 (stereo partly drawn) [Example 123, N-((1R,2R,3S,4R,Z)-7-(cyclopentyl-methylene)-3-((4-fluoro-3-(trifluoromethyl)phenyl)carbamoyl)bicyclo[2.2.1]heptan-2-yl)-5-(5-(hydroxymethyl)-3a,5,6,6a-tetrahydro-4H-cyclopenta[d]isoxazol-3-yl)-2-methoxynicotinamide]

More lines, now with the values behind:

Structure (SMILES) | pEC50
COc1ncc(C2=NOC3CC(C(N)=O)CC23)cc1C(=O)N[C@H]1[C@@H](C(=O)Nc2ccc(F)c(C(F)(F)F)c2)[C@H]2CC[C@@H]1/C2=C\C1CC1 (stereo partly drawn) [Example 66, 5-{5-carbamoyl-3aH,4H,5H,6H, 6aH-cyclopenta[d][1, 2]oxazol-3-yl}-N-[(1R,2R,3S, 4R,7Z)-7-(cyclopropylmethylidene)-3-{[4-fluoro-3-(trifluoromethyl)phenyl]carbamoyl}bicyclo[2.2.1]heptan-2-yl]-2-methoxypyridine-3-carboxamide] | 8.89
COc1nn(C)cc1C(=O)N[C@@H]1C2CCC(/C2=C/C(F)(F)F)[C@@H]1C(=O)Nc1ccc(F)c(C(F)(F)F)c1 (stereo partly drawn) [Example 12, N-[(2R,3S,7Z)-3-{[4-fluoro-3-(trifluoromethyl)phenyl]carbamoyl}-7-(2,2,2-trifluoroethylidene)bicyclo[2.2.1]heptan-2-yl]-3-methoxy-1-methyl-1H-pyrazole-4-carboxamide] | 5.34
N#Cc1ccc2c(c1)CCc1c(C(=O)N[C@H]3[C@@H](C(=O)Nc4ccc(F)c(C(F)(F)F)c4)[C@H]4CC[C@@H]3/C4=C\C(F)(F)F)nn(CC(F)F)c1-2 [Example 55, 7-cyano-1-(2,2-difluoroethyl)-N-((1R,2R,3S,4R,Z)-3-((4-fluoro-3-(trifluoromethyl)phenyl)carbamoyl)-7-(2,2,2-trifluoroethylidene)bicyclo[2.2.1]heptan-2-yl)-4,5-dihydro-1H-benzo[g]indazole-3-carboxamide] | 6.44
COc1cnc(-c2cc([C@H](OC(=O)Nc3ccccc3)C(F)(F)F)ccc2F)nc1C(=O)N[C@@H]1C2CCC(/C2=C/C(F)(F)F)[C@@H]1C(=O)Nc1ccc(F)c(C(F)(F)F)c1 (stereo partly drawn) [Example 36, (1S)-2.2,2-trifluoro-1-[4-fluoro-3-(4-{[(2R,3S,7Z)-3-{[4-fluoro-3-(trifluoromethyl)phenyl]carbamoyl}-7-(2,2,2-trifluoroethylidene)bicyclo[2. 2.1]heptan-2-yl]carbamoyl}-5-methoxypyrimidin-2-yl)phenyl]ethyl N-phenylcarbamate] | 7.20
Cc1nc(O)c(C(=O)N[C@H]2[C@@H](C(=O)Nc3ccc(F)c(C(F)(F)F)c3)[C@H]3CC[C@@H]2/C3=C\C(F)(F)F)cc1-c1cccc(C(=O)O)c1 [Example 56, 3-(5-(((1R,2R,3S,4R,Z)-3-((4-fluoro-3-(trifluoromethyl)phenyl)carbamoyl)-7-(2,2,2-trifluoroethylidene)bicyclo[2.2.1]heptan-2-yl)carbamoyl)-6-hydroxy-2-methylpyridin-3-yl)benzoic acid] | 5.55
CCCc1cnc(OC)c(C(=O)N[C@@H]2C3CCC(/C3=C/C(F)(F)F)[C@@H]2C(=O)Nc2ccc(F)c(C(F)(F)F)c2)n1 (stereo partly drawn) [Example 52, N-[(2R,3S,7Z)-3-{[4-fluoro-3-(trifluoromethyl)phenyl]carbamoyl}-7-(2,2,2-trifluoroethylidene)bicyclo[2.2.1]heptan-2-yl]-3-methoxy-6-propylpyrazine-2-carboxamide] | 5.89
Cn1c(=O)c(C(=O)N[C@@H]2C3CCC(/C3=C/C3CC3)[C@@H]2C(=O)Nc2ccc(F)c(C(F)(F)F)c2)cc2ccccc21 (stereo partly shown) [Example 19] | 5.40
O=C(N[C@@H]1C2CCC(/C2=C/C(F)(F)F)[C@@H]1C(=O)Nc1ccc(F)c(C(F)(F)F)c1)c1nc(Br)cnc1OCCO (stereo partly shown) [Example 48] | 6.06
COc1cnc(-c2cc(C(=O)O)ccc2F)nc1C(=O)N[C@@H]1C2CCC(/C2=C/C(F)(F)F)[C@@H]1C(=O)Nc1ccc(F)c(C(F)(F)F)c1 (stereo partly drawn) [Example 32, 4-Fluoro-3-(4-{[(2R,3S,7Z)-3-{[4-fluoro-3-(trifluoromethyl)phenyl]carbamoyl}-7-(2,2,2-trifluoroethylidene)bicyclo[2. 2.1]heptan-2-yl]carbamoyl}-5-methoxypyrimidin-2-yl)benzoic acid] | 6.78
